Results taken from patent US8501961B2, “HIV protease inhibitors and methods for using” (priority 2008, dated 2013).

Legend:
HIV-1 protease = HIV-1 protease (Human immunodeficiency virus type 1 group M subtype B (isolate HXB2) (HIV-1), UniProt P04585); assay: HIV-1 protease enzyme inhibitory assay (protocol of Toth and Marshall); assay type: biochemical; details: for fold reduction in enzymatic inhibitory potency with respect to 3d: vs 3d; for potency compared to 3i: vs 3i
Text: In another embodiment, inhibitors described herein contain a (R)-hydroxyethylamine sulfonamide isostere with a p-methoxysulfonamide as the P2′-ligand and various designed cyclic ethers and polyethers as the P2-ligands. In another embodiment, assays are described herein for evaluating compounds. Illustrative inhibitors described herein are initially evaluated in an enzyme inhibitory assay utilizing a protocol described by Toth and Marshall (Toth, M. V.; Marshall, G. R. A simple, continuous fluorometric assay for HIV protease. Int. J. Pep. Protein Res. 1990, 36, 544-550). […]

HIV-1-LAI = assay: Antiviral assay in MT-2 cells, inhibition of HIV-1-elicited cytopathic effect; assay type: cell-based; details: Human immunodeficiency virus 1, T-lymphoid, MT-2 human T-lymphoid cells exposed to HIV-1-LAI
[1] = Table 1, mean values of at least four determinations
[2] = Table 3, means of at least two experiments

Row | SMILES | Ki (HIV-1 protease; [1]) | potency compared to 3i (HIV-1 protease) | IC50 (HIV-1-LAI) | also measured
1 | COc1ccc(S(=O)(=O)N(CC(C)C)C[C@@H](O)[C@H](Cc2ccccc2)NC(=O)O[C@H]2CCCOCOC2)cc1 [Inhibitor 3a, (1S,2R)-{1-Benzyl-2-hydroxy-3-[isobutyl(4-methoxybenzenesulfonyl)amino]propyl}carbamic acid (1S)-3,5-dioxacyclooctan-1-yl ester] | 0.15 ± 0.019 nM |  |  | 
2 | COc1ccc(S(=O)(=O)N(CC(C)C)C[C@@H](O)[C@H](Cc2ccccc2)NC(=O)O[C@@H]2CCCCOC2)cc1 [Inhibitor 3e, (1S,2R)-{1-Benzyl-2-hydroxy-3-[isobutyl(4-methoxybenzenesulfonyl)amino]propyl}carbamic acid (R)-oxepan-3-yl ester] | 0.81 ± 0.12 nM |  |  | fold reduction in enzymatic inhibitory potency with respect to 3d (HIV-1 protease): ~30 fold
3 | COc1ccc(S(=O)(=O)N(CC(C)C)C[C@@H](O)[C@H](Cc2ccccc2)NC(=O)O[C@H]2CCCOCC2)cc1 [Inhibitor 3f, (1S,2R)-{1-Benzyl-2-hydroxy-3-[isobutyl(4-methoxybenzenesulfonyl)amino]propyl}carbamic acid (S)-oxepan-4-yl ester] | 0.74 ± 0.15 nM |  |  | fold reduction in enzymatic inhibitory potency with respect to 3d (HIV-1 protease): ~30 fold
4 | COc1ccc(S(=O)(=O)N(CC(C)C)C[C@@H](O)[C@H](Cc2ccccc2)NC(=O)OC2CCCCCC2)cc1 [Inhibitor 3g, (1S,2R)-{1-Benzyl-2-hydroxy-3-[isobutyl(4-methoxybenzenesulfonyl)amino]propyl}carbamic acid Cycloheptanyl ester] | 27 ± 0.81 nM |  |  | 
5 | COc1ccc(S(=O)(=O)N(CC(C)C)C[C@@H](O)[C@H](Cc2ccccc2)NC(=O)OC2COCCOCCOCCOC2)cc1 [Inhibitor 3j, (1S,2R)-{1-Benzyl-2-hydroxy-3-[isobutyl(4-methoxybenzenesulfonyl)amino]propyl}carbamic acid 3,6,9,12-tetraoxacyclotridecan-1-yl ester] | 33 ± 1.9 nM |  |  | 
6 | COc1ccc(S(=O)(=O)N(CC(C)C)C[C@@H](O)[C@H](Cc2ccccc2)NC(=O)OC2COCCOCOCCOC2)cc1 [Inhibitor 3k, (1S,2R)-{1-Benzyl-2-hydroxy-3-[isobutyl(4-methoxybenzenesulfonyl)amino]propyl}carbamic acid 3,6,8,11-tetraoxacyclododecan-1-yl ester] | 6.3 ± 0.57 nM | more than 2 fold | > 1000 nM | fold potency enhancement compared to inhibitor 3j (HIV-1 protease; vs 3j): 5 fold
7 | COc1ccc(S(=O)(=O)N(CC(C)C)C[C@@H](O)[C@H](Cc2ccccc2)NC(=O)OC2COCCS(=O)(=O)CCOC2)cc1 [Inhibitor 3l, (1S,2R)-{1-Benzyl-2-hydroxy-3-[isobutyl(4-methoxybenzenesulfonyl)amino]propyl}carbamic acid 3,9-dioxa-6-thiacyclodecan-1-yl 6,6-dioxide ester] | 1.9 ± 0.2 nM | 9 fold | > 1000 nM | 
8 | COc1ccc(S(=O)(=O)N(CC(C)C)C[C@@H](O)[C@H](Cc2ccccc2)NC(=O)OC2COCCN(C)CCOC2)cc1 [Inhibitor 3m, (1S,2R)-{1-Benzyl-2-hydroxy-3-[isobutyl(4-methoxybenzenesulfonyl)amino]propyl}carbamic acid N-methyl-1,7-dioxa-4-azocyclodecan-9-yl ester] | 19 ± 0.76 nM | no change in inhibitory activity | > 1000 nM | 
9 | COc1ccc(S(=O)(=O)N(CC(C)C)C[C@@H](O)[C@H](Cc2ccccc2)NC(=O)O[C@H]2CC3OCO[C@@H]3C2)cc1 (stereo partly drawn) [Inhibitor 126, (1′S,2′R)-{1′-Benzyl-2′-hydroxy-3′-[isobutyl(4-methoxybenzenesulfonyl)amino]propyl} carbamic acid (1β,2β,4α)-1,2-(methylenedioxy)cyclopent-4-yl ester] |  |  |  | Ki (HIV-1 protease; [2]): 0.4 ± 0.04 nM; fold less potent than the syn isomer 102 (HIV-1 protease; vs 102): 3.5 fold
10 | COc1ccc(S(=O)(=O)N(CC(C)C)C[C@@H](O)[C@H](Cc2ccccc2)NC(=O)O[C@H]2CC3OCCO[C@@H]3C2)cc1 (stereo partly drawn) [Inhibitor 129, (1′S,2′R)-{1′-Benzyl-2′-hydroxy-3′-[isobutyl(4-methoxybenzenesulfonyl)amino]propyl} carbamic acid (1β,2β,4α)-1,2-(ethylenedioxy)cyclopent-4-yl ester] |  |  |  | Ki (HIV-1 protease; [2]): 0.5 ± 0.04 nM
